Solubility and logD data for 56 molecules are collected here from ChEMBL document CHEMBL2010651, “Discovery and hit-to-lead optimization of pyrrolopyrimidines as potent, state-dependent Na(v)1.7 antagonists” (Bioorg Med Chem Lett, 2012).

Common to all, as to assay type: physicochemical
Data set [1] can be described thus: Solubility in simulated intestinal fluid.
Data set [2] in a line: Solubility in 0.01 N HCl.
Data set [3] can be described thus: Lipophilicity, log D of the compound at pH 7.4. As to conditions: buffer.
Data set [4] can be described thus: Solubility in phosphate buffered saline.

Values after ≈ are worked out from the molar mass of the structure shown.

As usually defined, the solubility is the dissolved amount per volume that the medium holds. Read a high solubility as a readily soluble substance. As a reminder, the logD is lipophilicity at a set pH, counting ionised and neutral species. Read a high logD as a more lipophilic compound.

As for `Cc1c(C)n(Cc2ccccc2)c2ncnc(OC3CCN(Cc4cscn4)CC3)c12`, the solubility is 177 µg/mL (≈ 408 µM) in data set [1], greater than 200 µg/mL in data set [2] and 65 µg/mL (≈ 150 µM) in data set [4]. The logD in data set [3] was determined as 4.35.
In data set [3], `Cc1cn(Cc2ccccc2)c2ncnc(OC3CCN(Cc4cscn4)CC3)c12` had a logD of 3.89.
On to `Fc1cn(Cc2ccccc2)c2ncnc(OC3CCN(Cc4cscn4)CC3)c12`, for which the logD in data set [3] stood at 3.49.
Same read-out and setting: the same measure for `Clc1cn(Cc2ccccc2)c2ncnc(OC3CCN(Cc4cscn4)CC3)c12`: 4.03; for `c1ccc(Cn2ccc3c(OC4CCN(Cc5cscn5)CC4)ncnc32)cc1`: 3.44; for `Cc1nc(OC2CCN(Cc3cscn3)CC2)c2ccn(Cc3ccccc3)c2n1`: 4.15.
Same read-out and setting: the same measure for `FC(F)(F)c1nc(OC2CCN(Cc3cscn3)CC2)c2ccn(Cc3ccccc3)c2n1`: 5.1.
On the same count and under the same terms, then `c1ccc(Cn2ncc3c(OC4CCN(Cc5cscn5)CC4)ncnc32)cc1`, with 2.18.
With `c1ccc(Cn2cnc3c(OC4CCN(Cc5cscn5)CC4)ncnc32)cc1`, the logD in data set [3] is 2.28.
On the same count and under the same terms, then `CC1(C)CN(Cc2ccccc2)c2ncnc(OC3CCN(Cc4cscn4)CC3)c21`, with 3.94; and `CC1(C)C(=O)N(Cc2ccccc2)c2ncnc(OC3CCN(Cc4cscn4)CC3)c21`, with 2.39; and `c1ccc(-n2ccc3c(OC4CCN(Cc5cscn5)CC4)ncnc32)cc1`, with 3.3.
The same measure, in the same setting: then `c1ccc(CCn2ccc3c(OC4CCN(Cc5cscn5)CC4)ncnc32)cc1`, with 3.87; and `c1nc(OC2CCN(Cc3cscn3)CC2)c2ccn(CC3CCCCC3)c2n1`, with 4.32; and `Fc1ccccc1Cn1ccc2c(OC3CCN(Cc4cscn4)CC3)ncnc21`, with 3.49.
On the same count and under the same terms, then `Fc1cccc(Cn2ccc3c(OC4CCN(Cc5cscn5)CC4)ncnc32)c1`, with 3.49.
In data set [3], `Fc1ccc(Cn2ccc3c(OC4CCN(Cc5cscn5)CC4)ncnc32)cc1` registered a logD of 3.49.
Turning to `Clc1cccc(Cn2ccc3c(OC4CCN(Cc5cscn5)CC4)ncnc32)c1`, in data set [3], the logD was determined as 4.03.
`Clc1ccc(Cn2ccc3c(OC4CCN(Cc5cscn5)CC4)ncnc32)cc1`: the logD in data set [3] stood at 4.03.
Turning to `Cc1ccccc1Cn1ccc2c(OC3CCN(Cc4cscn4)CC3)ncnc21`, the logD in data set [3] is 3.9.
Still for that read-out and setting: then `Cc1cccc(Cn2ccc3c(OC4CCN(Cc5cscn5)CC4)ncnc32)c1`, with 3.9; and `Cc1ccc(Cn2ccc3c(OC4CCN(Cc5cscn5)CC4)ncnc32)cc1`, with 3.9; and `FC(F)(F)c1ccccc1Cn1ccc2c(OC3CCN(Cc4cscn4)CC3)ncnc21`, with 4.01.
`FC(F)(F)c1cccc(Cn2ccc3c(OC4CCN(Cc5cscn5)CC4)ncnc32)c1` gave a logD in data set [3] of 4.01.
Still for that read-out and setting: then `FC(F)(F)c1ccc(Cn2ccc3c(OC4CCN(Cc5cscn5)CC4)ncnc32)cc1`, with 4.01.
Still for that read-out and setting: the same measure for `Fc1cccc(Cn2ccc3c(OC4CCN(Cc5cscn5)CC4)ncnc32)c1F`: 3.45.
Same read-out and setting: then `Fc1c(Cl)cccc1Cn1ccc2c(OC3CCN(Cc4cscn4)CC3)ncnc21`, with 4.19; and `Fc1c(Cn2ccc3c(OC4CCN(Cc5cscn5)CC4)ncnc32)cccc1C(F)(F)F`, with 4.08; and `Fc1cccc(F)c1Cn1ccc2c(OC3CCN(Cc4cscn4)CC3)ncnc21`, with 3.58.
Regarding `c1ccc(Cn2ccc3c(OC4CCNCC4)ncnc32)cc1`, the logD in data set [3] was 1.24.
Still for that read-out and setting: the same measure for `c1ccc(Cn2ccc3c(OC4CCN(c5ccccc5)CC4)ncnc32)cc1`: 5.31.
In the case of `c1ccc(CN2CCC(Oc3ncnc4c3ccn4Cc3ccccc3)CC2)cc1`, in data set [3], the logD turned out to be 4.96.
Still for that read-out and setting: the same measure for `O=C(c1cscn1)N1CCC(Oc2ncnc3c2ccn3Cc2ccccc2)CC1`: 3.07; for `c1ccc(Cn2ccc3c(OC4CCN(Cc5cocn5)CC4)ncnc32)cc1`: 3.1.
The same measure, in the same setting: the same measure for `c1ccc(Cn2ccc3c(OC4CCN(Cc5c[nH]cn5)CC4)ncnc32)cc1`: 2.35; for `c1ccc(Cn2ccc3c(OC4CCN(Cc5ccn[nH]5)CC4)ncnc32)cc1`: 3.02.
On the same count and under the same terms, the same measure for `c1ccc(Cn2ccc3c(OC4CCN(Cc5cn[nH]c5)CC4)ncnc32)cc1`: 3.16; for `Cn1cc(CN2CCC(Oc3ncnc4c3ccn4Cc3ccccc3)CC2)cn1`: 3.01.
With `Cn1ccnc1CN1CCC(Oc2ncnc3c2ccn3Cc2ccccc2)CC1`, in data set [3], the logD stood at 2.93.
Still for that read-out and setting: the same measure for `Cc1nc(CN2CCC(Oc3ncnc4c3ccn4Cc3ccccc3)CC2)cs1`: 4.1.
`c1ccc(Cn2ccc3c(OC4CCN(Cc5nccs5)CC4)ncnc32)cc1` displayed a logD in data set [3] of 4.81.
With `c1ccc(Cn2ccc3c(OC4CCN(Cc5ccccn5)CC4)ncnc32)cc1`, the logD in data set [3] was found to be 3.7.
The same measure, in the same setting: the same measure for `c1ccc(Cn2ccc3c(OC4CCN(Cc5cccnc5)CC4)ncnc32)cc1`: 3.67; for `c1ccc(Cn2ccc3c(OC4CCN(Cc5ccncc5)CC4)ncnc32)cc1`: 3.69.
Same read-out and setting: then `Cc1cccc(CN2CCC(Oc3ncnc4c3ccn4Cc3ccccc3)CC2)n1`, with 4.08; and `Cc1ccc(CN2CCC(Oc3ncnc4c3ccn4Cc3ccccc3)CC2)nc1`, with 4.15.
On to `Cc1ccnc(CN2CCC(Oc3ncnc4c3ccn4Cc3ccccc3)CC2)c1`, for which, in data set [3], the logD worked out at 4.15.
The same measure, in the same setting: then `Cc1cccnc1CN1CCC(Oc2ncnc3c2ccn3Cc2ccccc2)CC1`, with 4.15; and `Fc1cccc(CN2CCC(Oc3ncnc4c3ccn4Cc3ccccc3)CC2)n1`, with 3.83; and `Fc1ccc(CN2CCC(Oc3ncnc4c3ccn4Cc3ccccc3)CC2)nc1`, with 3.76.
The same measure, in the same setting: then `Fc1cccnc1CN1CCC(Oc2ncnc3c2ccn3Cc2ccccc2)CC1`, with 3.77.
Same read-out and setting: the same measure for `c1ccc(Cn2ccc3c(OC4CCN(Cc5cnccn5)CC4)ncnc32)cc1`: 2.71; for `Fc1ccccc1Cn1ccc2c(OC3CCN(Cc4ccccn4)CC3)ncnc21`: 3.75.
For the molecule `Fc1cccc(Cn2ccc3c(OC4CCN(Cc5ccccn5)CC4)ncnc32)c1F`, the logD in data set [3] stood at 3.71.
Still for that read-out and setting: the same measure for `Fc1c(Cl)cccc1Cn1ccc2c(OC3CCN(Cc4ccccn4)CC3)ncnc21`: 4.46; for `Fc1c(Cn2ccc3c(OC4CCN(Cc5ccccn5)CC4)ncnc32)cccc1C(F)(F)F`: 4.35.
